Source: article PMC5047629, “Synthesis, Pharmacological Profile and Docking Studies of New Sulfonamides Designed as Phosphodiesterase-4 Inhibitors” (PLoS ONE, 2016)

How the values were obtained:
A/J mice [1] = test: Murine model of asthma with 4 weekly OVA provocations (days 14, 21, 28, 35), interventional treatment; format: in vivo; details: LASSBio-448 100 mg/Kg oral
Experimental: Sensitization was performed by means of a subcutaneous injection of 50 μg ovalbumin (OVA) (grade V; Sigma-Aldrich, St. Louis, MO) adsorbed to 5 mg of Al(OH)3 in 0.2 mL of sterile 0.9% NaCl (saline) at days 0 and 14. Intranasal OVA provocations (25 μg /25 μL saline) were performed at 19 and 20 days post-sensitization under isofluorane volatile anaesthesia (Cristalia, São Paulo, Brazil). Alternatively, sensitization as described above were done at days 0 and 7, while the OVA provocations were carried out at days 14, 21, 28 and 35 [39]. Negative control groups were represented by sensitized mice in which allergen was replaced by saline as a challenge. Treatments were done orally 1 h before provocations. Test compounds were dissolved in saline containing 0.2% Tween 80. All solutions were freshly prepared immediately before use. Analyses were performed 24 h after the last provocation.
(§1) Airflow and transpulmonary pressure were recorded with a Buxco pulmonary mechanics processing system (Buxco Electronics, Sharon, CT), which calculated resistance (cmH2O.s/ml) and dynamic lung compliance (mL/cmH2O) in each breath cycle. Elastance was calculated as the inverse of compliance values. Mice were anesthetized with nembutal (60 mg/kg), and the neuromuscular activity was blocked with bromide pancuronium (1 mg/kg). Animals were allowed to stabilize for 5 min and increasing concentrations of methacholine (3–27 mg/mL) were aerosolized for 5 min each. Baseline pulmonary parameters were assessed with aerosolized phosphate buffer solution (PBS).
The EPO activity present in lung tissue was determined with a colorimetric assay as described by Strath et al. (1985), with minor modifications. Briefly, the lungs were cannulated and perfused with saline/EDTA (20 mM). Then, lung samples were homogenized in buffer solution containing 0.5% HBSS (Hank´s balanced solution, pH 7.4; Sigma Chemical Co.) using a tissue homogenizer (T25 ultra-Tirrax). Samples were centrifuged at 1300 xg for 10 min at 4°C. Red blood cells were removed by hypotonic and hypertonic lysis. The suspended cells were then centrifuged again at 1300 xg for 10 min at 4°C. The pellet was then suspended in a solution of HBSS containing 0.5% of HTAB (hexadecyltrimethylamonium bromide; Sigma Chemical Co.) (pH 7.4). This suspension was subjected to heat shock for lysing the cells in three cycles freeze/thawed. At the end, the supernatants were collected, centrifuged at 12000 rpm for 15 min at 4°C and assayed spectrophotometrically for EPO determination. Fifty μl of the samples were placed, and then 50 μl of the substrate (1.5 mM o-phenylenediamine and 6.6 mM hydrogen peroxide in 0.05 mM Tris-HCl buffer, pH 8.0) was added and, after a 30 min incubation at room temperature, 50 μl of H2SO4 (4M) was added to stop the reaction. The optical density reading was performed on the SpectraMax M5 spectrophotometer (Molecular Devices) at a wavelength of 492 nm.
Right lungs tissue samples from saline- and OVA-exposed mice were homogenized in PBS containing 0.05% Triton X-100 and a protease inhibitor cocktail (Complete®, Hoffmann-La Roche Ltd, Basel, Switzerland). After centrifugation at 13000xg for 10 min and 4°C, the levels of IL-13, IL-5, IL-4 and eotaxin-2 were quantified in the supernatant, using commercially available ELISA kits (DuoSet; R&D Systems, Minneapolis, MN, USA). The results were expressed as picograms of cytokine per right lung.

PDEs5-11 = test: PDE selectivity profile evaluated by CEREP; format: biochemical, human; details: 10 μM; data not shown
Experimental: (§2) The selectivity profile of compound 6a (LASSBio-448) toward the human PDE1, PDE2, PDE5-PDE8, PDE10 and PDE11 was evaluated by CEREP.

A/J mice [2] = test: LPS-induced lung inflammation and airway hyper-reactivity; format: in vivo; details: LASSBio-448 2.5 and 10 mg/kg oral, cilomilast 1 mg/kg oral, 1 h before LPS, 24 h post-challenge
Experimental: A/J mice were anesthetized with isoflurane aerosol and then challenged with LPS (25μg/25 μL) or phosphate buffered solution (PBS) by intranasal instillation as reported. The analyses were performed 24 h after stimulation. Treatment with LASSBio-448 (2.5–10 mg/kg/mice) or cilomilast (1 mg/kg) was performed orally, 1 h before LPS exposure. LASSBio-448 was dissolved in 0.2% Tween 80, while cilomilast was dissolved in 1 M NaOH and further neutralized with 1 N HCl, before adjusting the final volume with 0.9% NaCl solution (saline). The substances were dissolved immediately before use.
as §1
The MPO activity present in the lung tissue was colorimetrically determined as described by Hirano (1996), with minor changes. Briefly, after lung perfusion with 20 mM EDTA in 0.9% saline, lung samples were homogenized in Hank´s balanced solution (HBSS) at pH 7.4. The homogenates were centrifuged for 10 min at 1300 xg and 4°C. Red blood cells were removed by hypotonic and hypertonic lysis and suspended cells were re-centrifuged as described above. The pellet was then suspended in HBSS at pH 7.4 containing 0.5% hexadecyltrimethyl ammonium bromide (HTAB). The homogenates were centrifuged for 30 min at 12500 xg and 4°C. The supernatants were then collected and incubated with 0.167 mg/mL of ortho-dianisidine dihydrochloride for 15 min at 37°C, after which 0.0006% H2O2 in 50 mM phosphate buffer at pH 6 was added. The reaction was stopped 10 min later by adding 50 μL of 1% sodium azide. The measurement was done at 460 nm using the SpectraMax M5 microplate reader (Molecular Devices).

[3] = system: guinea-pig tracheal smooth muscle cells; test: cAMP intracellular levels in airway smooth muscle cells (radioimmunoassay); format: cell-based; details: 100 μM, S1B Fig
Experimental: Intracellular cAMP concentrations were assayed in primary cultured guinea-pig tracheal smooth muscle cells as reported. Briefly, smooth muscle cells obtained from guinea pig tracheas were cultured in DMEM containing 10% fetal bovine serum, 100 units/ml of penicillin, […] of streptomycin and 2 mM of glutamine for 3 to 7 days. After the third cell splitting, 10^6 cells/well were grown in 24-well plates. At confluence, smooth muscle cells were washed with PBS and incubated with 100 μM LASSBio-448 or forskolin (adenylyl cyclase activator), in the presence or absence of 100 μM SQ22536 (adenylyl cyclase inhibitor) for 30 min. Lysed cells were collected and the intracellular cAMP was evaluated by means of radioimmunoassay (TRK 432–Cyclic AMP^[3H] Biotrak assay system—Amersham Pharmacia Biotech, Buckinghamshire, England) following manufacturer’s guidelines.

PDE2A = target: T1, PDE2A (Homo sapiens, UniProt O00408); test: PDE selectivity profile evaluated by CEREP; format: biochemical; details: 10 μM; data not shown
T1 construct: CEREP
T1 sequence (O00408 whole entry): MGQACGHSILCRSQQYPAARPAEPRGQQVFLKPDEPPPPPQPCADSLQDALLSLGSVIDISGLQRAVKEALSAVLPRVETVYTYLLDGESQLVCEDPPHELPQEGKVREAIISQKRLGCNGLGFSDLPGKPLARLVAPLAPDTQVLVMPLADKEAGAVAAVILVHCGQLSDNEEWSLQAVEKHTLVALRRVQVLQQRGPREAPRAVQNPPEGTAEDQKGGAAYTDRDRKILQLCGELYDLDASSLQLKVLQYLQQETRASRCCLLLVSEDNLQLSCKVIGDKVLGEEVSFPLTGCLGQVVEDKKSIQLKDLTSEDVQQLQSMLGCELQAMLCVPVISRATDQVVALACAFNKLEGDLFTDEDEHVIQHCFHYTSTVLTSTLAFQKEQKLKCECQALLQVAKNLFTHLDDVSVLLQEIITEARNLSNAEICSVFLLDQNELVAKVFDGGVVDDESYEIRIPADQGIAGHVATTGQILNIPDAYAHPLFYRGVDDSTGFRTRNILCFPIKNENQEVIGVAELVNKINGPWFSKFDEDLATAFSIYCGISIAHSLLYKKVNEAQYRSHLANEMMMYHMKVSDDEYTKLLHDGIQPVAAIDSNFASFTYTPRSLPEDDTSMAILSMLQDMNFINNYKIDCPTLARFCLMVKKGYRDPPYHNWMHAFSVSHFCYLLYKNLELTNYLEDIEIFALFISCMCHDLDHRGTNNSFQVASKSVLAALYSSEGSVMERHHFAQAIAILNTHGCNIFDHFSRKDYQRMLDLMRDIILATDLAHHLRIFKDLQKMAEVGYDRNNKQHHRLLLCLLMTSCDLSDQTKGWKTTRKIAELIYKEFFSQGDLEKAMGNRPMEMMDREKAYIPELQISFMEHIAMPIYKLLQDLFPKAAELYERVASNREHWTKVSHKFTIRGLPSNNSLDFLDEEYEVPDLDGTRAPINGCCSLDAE
Experimental: as §2

PDE1B = target: T2, PDE1B (Homo sapiens, UniProt Q01064); test: PDE selectivity profile evaluated by CEREP; format: biochemical; details: 10 μM; data not shown
T2 construct: CEREP
T2 sequence (Q01064 whole entry): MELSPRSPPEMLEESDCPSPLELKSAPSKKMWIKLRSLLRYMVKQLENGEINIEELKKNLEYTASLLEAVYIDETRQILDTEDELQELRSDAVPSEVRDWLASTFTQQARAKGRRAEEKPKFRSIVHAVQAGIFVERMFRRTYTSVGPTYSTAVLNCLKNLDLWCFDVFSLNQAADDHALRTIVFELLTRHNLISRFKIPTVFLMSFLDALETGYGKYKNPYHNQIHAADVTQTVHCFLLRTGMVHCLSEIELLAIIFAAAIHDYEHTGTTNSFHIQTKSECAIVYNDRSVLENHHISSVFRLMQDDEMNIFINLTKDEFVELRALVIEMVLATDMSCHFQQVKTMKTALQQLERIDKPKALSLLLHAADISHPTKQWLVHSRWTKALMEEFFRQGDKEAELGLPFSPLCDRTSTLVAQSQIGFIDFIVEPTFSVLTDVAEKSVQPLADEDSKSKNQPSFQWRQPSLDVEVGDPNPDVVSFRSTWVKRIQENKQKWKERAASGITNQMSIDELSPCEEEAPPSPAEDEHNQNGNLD
Experimental: as §2

[4] = rolipram 10 mg/Kg oral, right lung, 24 h after last challenge, vs vehicle, Fig 8

COc1ccc(CCNS(=O)(=O)c2cc3c(cc2C)OCO3)cc1OC [6a (LASSBio-448), N-(3,4-dimethoxyphenethyl)-6-methylbenzo[d][1, 3]dioxole-5-sulfonamide]
extracellular matrix deposition (histology) (A/J mice [1]; interventional, Fig 6): sensitive to the interventional treatment
mucus exacerbation (histology) (A/J mice [1]; interventional, Fig 6): sensitive to the interventional treatment
airway hyper-reactivity to methacholine, airway resistance (A/J mice [1]; rolipram 10 mg/Kg oral, Fig 7A): equally effective in inhibiting
airway hyper-reactivity to methacholine, lung elastance (A/J mice [1]; rolipram 10 mg/Kg oral, Fig 7B): equally effective in inhibiting
IL-4 level in lung tissue (A/J mice [1]; [4]): reduction in the levels
IL-5 level in lung tissue (A/J mice [1]; [4]): reduction in the levels
IL-13 level in lung tissue (A/J mice [1]; [4]): reduction in the levels
eotaxin-2 level in lung tissue (A/J mice [1]; [4]): reduction in the levels
allergen-induced eosinophil accumulation in the lung tissue (eosinophil peroxidase) (A/J mice [1]; rolipram 10 mg/kg oral, at third and fourth weeks of challenge, Fig 5): impair the progress
inhibition of PDEs5-11 (PDEs5-11): unable to inhibit
LPS-induced airway hyper-reactivity (lung elastance after methacholine 3–27 mg/ml) (A/J mice [2]; Fig 9A): dose-dependently prevented
neutrophil infiltration into the lung tissue (MPO activity) (A/J mice [2]; Fig 9B): marked reduction
cAMP intracellular levels in cultured tracheal smooth muscle cells ([3]; levels comparable to forskolin): up-regulated
cAMP elevating effect after pre-treatment with SQ22,536 ([3]; pre-treatment with 100 μM SQ22,536): clearly abrogated
inhibition of PDE2A (PDE2A): unable to inhibit
inhibition of PDE1B (PDE1B): unable to inhibit
